Holding throughout (type): biochemical
The target of assay [1] is T1, MaeA (NAD+-dependent malic enzyme) (Escherichia coli, UniProt P26616).
T1 construct: N-terminal His-tag (modified pET22b(+)), expressed in E. coli BL21(DE3), HisTrap purified
T1 sequence (P26616 1-565): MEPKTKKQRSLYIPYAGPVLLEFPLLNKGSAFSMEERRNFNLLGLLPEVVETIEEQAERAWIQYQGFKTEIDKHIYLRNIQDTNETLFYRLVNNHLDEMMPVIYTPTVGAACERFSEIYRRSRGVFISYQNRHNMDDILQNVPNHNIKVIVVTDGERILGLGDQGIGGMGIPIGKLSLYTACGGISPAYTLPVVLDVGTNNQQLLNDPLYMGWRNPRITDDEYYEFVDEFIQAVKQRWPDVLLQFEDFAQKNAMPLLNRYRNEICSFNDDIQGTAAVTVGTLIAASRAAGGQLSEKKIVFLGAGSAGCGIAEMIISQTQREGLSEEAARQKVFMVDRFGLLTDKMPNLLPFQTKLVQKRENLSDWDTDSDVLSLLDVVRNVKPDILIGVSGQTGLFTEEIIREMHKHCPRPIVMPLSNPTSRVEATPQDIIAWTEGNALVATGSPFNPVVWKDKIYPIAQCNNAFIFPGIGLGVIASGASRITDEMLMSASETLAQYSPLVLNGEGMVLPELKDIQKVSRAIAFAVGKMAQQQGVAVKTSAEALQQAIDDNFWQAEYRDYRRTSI
Kind of assay: NAD(P)H formation at […] nm, Michaelis-Menten fit. The following applies: 50 mM Tris HCl pH 7.5, 10 mM MgCl2, 30 °C, apparent.

In assay [2] the target is T2, Lpd (dihydrolipoamide dehydrogenase; lipoamide dehydrogenase) (Escherichia coli, UniProt P0A9P0).
T2 construct: gene lpdA; N-terminal His-tag (modified pET22b(+)), expressed in E. coli BL21(DE3) Codon+, HisTrap and gel filtration
Kind of assay: NAD(P)H formation at […] nm, nonlinear fit of initial rates. The following applies: 100 mM Na phosphate, 100 mM KCl, 8 mM TCEP, pH 7.6, room temperature, apparent.

For assay [3], the target named is T3, MaeA (NAD+-dependent malic enzyme) (Escherichia coli, UniProt P26616, L176V/D336N).
T3 construct: N-terminal His-tag (modified pET22b(+)), expressed in E. coli BL21(DE3), HisTrap purified
T3 sequence (P26616 1-565 L176V/D336N): T1 sequence (P26616 1-565) with L176V, D336N
In words: NAD(P)H formation at […] nm, Michaelis-Menten fit. The following applies: 50 mM Tris HCl pH 7.5, 10 mM MgCl2, 30 °C; L-malate at 6 to 10 times its KM; apparent.

The target in assay [4] is T4, Lpd (dihydrolipoamide dehydrogenase; lipoamide dehydrogenase) (Escherichia coli, UniProt P0A9P0, E205A).
T4 construct: gene lpdA; N-terminal His-tag (modified pET22b(+)), expressed in E. coli BL21(DE3) Codon+, HisTrap and gel filtration
In words: NAD(P)H formation at […] nm, nonlinear fit of initial rates. The following applies: 100 mM Na phosphate, 100 mM KCl, 8 mM TCEP, pH 7.6, room temperature; 4 mM dihydrolipoamide; apparent.

Assay [5] has as its target T5, MaeA (NAD+-dependent malic enzyme) (Escherichia coli, UniProt P26616, I283N/D336A).
T5 construct: N-terminal His-tag (modified pET22b(+)), expressed in E. coli BL21(DE3), HisTrap purified
T5 sequence (P26616 1-565 I283N/D336A): T1 sequence (P26616 1-565) with I283N, D336A
Kind of assay: NAD(P)H formation at […] nm, Michaelis-Menten fit. The following applies: 50 mM Tris HCl pH 7.5, 10 mM MgCl2, 30 °C; L-malate at 6 to 10 times its KM; apparent.

For assay [6], the target named is T6, MaeA (NAD+-dependent malic enzyme) (Escherichia coli, UniProt P26616, D336N).
T6 construct: N-terminal His-tag (modified pET22b(+)), expressed in E. coli BL21(DE3), HisTrap purified
T6 sequence (P26616 1-565 D336N): T1 sequence (P26616 1-565) with D336N
In words: NAD(P)H formation at […] nm, Michaelis-Menten fit. The following applies: 50 mM Tris HCl pH 7.5, 10 mM MgCl2, 30 °C; L-malate at 6 to 10 times its KM; apparent.

Assay [7] concerns the target T7, Lpd (dihydrolipoamide dehydrogenase; lipoamide dehydrogenase) (Escherichia coli, UniProt P0A9P0, E205G).
T7 construct: gene lpdA; N-terminal His-tag (modified pET22b(+)), expressed in E. coli BL21(DE3) Codon+, HisTrap and gel filtration
Kind of assay: NAD(P)H formation at […] nm, nonlinear fit of initial rates. The following applies: 100 mM Na phosphate, 100 mM KCl, 8 mM TCEP, pH 7.6, room temperature; 4 mM dihydrolipoamide; apparent.

[8] abbreviates: L-malate at 6 to 10 times its KM.

In article PMC8406311, “Change in Cofactor Specificity of Oxidoreductases by Adaptive Evolution of an Escherichia coli NADPH-Auxotrophic Strain” (mBio, 2021) one finds Km data, which are given here for four compounds.

Positions count from the first letter of the chain named.

T4 sequence (P0A9P0 2-474 E205A): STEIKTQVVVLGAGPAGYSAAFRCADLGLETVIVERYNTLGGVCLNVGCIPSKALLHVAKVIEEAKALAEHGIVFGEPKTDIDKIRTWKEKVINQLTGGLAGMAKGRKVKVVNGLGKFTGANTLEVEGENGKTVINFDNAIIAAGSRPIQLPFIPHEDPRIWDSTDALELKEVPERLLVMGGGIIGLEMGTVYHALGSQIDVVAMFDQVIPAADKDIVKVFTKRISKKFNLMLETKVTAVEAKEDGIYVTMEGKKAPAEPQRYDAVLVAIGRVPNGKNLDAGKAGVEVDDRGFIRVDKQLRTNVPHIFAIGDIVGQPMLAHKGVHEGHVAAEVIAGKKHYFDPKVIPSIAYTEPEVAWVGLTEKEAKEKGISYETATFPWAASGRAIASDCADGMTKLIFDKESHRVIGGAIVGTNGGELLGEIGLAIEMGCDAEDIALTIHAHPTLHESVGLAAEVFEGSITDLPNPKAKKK
T2 sequence (P0A9P0 2-474): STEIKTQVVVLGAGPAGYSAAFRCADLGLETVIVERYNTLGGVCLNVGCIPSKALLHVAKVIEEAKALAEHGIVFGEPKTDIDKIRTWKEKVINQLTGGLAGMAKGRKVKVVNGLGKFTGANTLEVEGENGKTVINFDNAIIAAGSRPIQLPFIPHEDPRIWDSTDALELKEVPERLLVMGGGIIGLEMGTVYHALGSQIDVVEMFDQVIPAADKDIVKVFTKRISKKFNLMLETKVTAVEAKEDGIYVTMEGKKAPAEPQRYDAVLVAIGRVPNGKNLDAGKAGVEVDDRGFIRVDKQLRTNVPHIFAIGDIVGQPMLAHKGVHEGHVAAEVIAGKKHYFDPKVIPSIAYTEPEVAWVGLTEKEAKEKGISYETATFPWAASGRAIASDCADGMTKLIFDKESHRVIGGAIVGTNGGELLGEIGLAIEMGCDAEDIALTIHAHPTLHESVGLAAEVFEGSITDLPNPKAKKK
T7 sequence (P0A9P0 2-474 E205G): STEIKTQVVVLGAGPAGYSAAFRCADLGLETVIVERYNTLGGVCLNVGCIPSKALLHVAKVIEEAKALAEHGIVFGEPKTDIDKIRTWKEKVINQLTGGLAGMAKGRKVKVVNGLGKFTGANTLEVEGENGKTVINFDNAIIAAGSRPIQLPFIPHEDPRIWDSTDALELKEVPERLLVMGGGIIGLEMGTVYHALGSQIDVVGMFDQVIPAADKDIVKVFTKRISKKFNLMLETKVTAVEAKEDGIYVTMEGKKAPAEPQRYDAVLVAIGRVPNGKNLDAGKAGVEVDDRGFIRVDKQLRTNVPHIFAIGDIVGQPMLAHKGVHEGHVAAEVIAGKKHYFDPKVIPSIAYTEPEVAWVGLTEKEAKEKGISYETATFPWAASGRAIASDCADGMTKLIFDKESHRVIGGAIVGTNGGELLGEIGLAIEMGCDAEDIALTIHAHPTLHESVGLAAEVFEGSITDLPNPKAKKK

As to `O=C(O)C[C@H](O)C(=O)O` [L-malate], the Km in assay [1] (other substrates at 6 to 10 times their KM) worked out at 630 ± 40 µM.

In the case of `NC(=O)CCCC[C@@H](S)CCS` [dihydrolipoamide], in assay [2], the Km was 180 ± 20 µM.

For `NC(=O)c1ccc[n+]([C@@H]2O[C@H](COP(=O)(O)OP(=O)(O)OC[C@H]3O[C@@H](n4cnc5c(N)ncnc54)[C@H](OP(=O)(O)O)[C@@H]3O)[C@@H](O)[C@H]2O)c1` [NADP^+], the Km in assay [3] was determined as 16 ± 1 µM; in assay [4] it was 2480 ± 690 µM; in assay [5], 13 µM; in assay [6] it was 91 ± 10 µM; in assay [1] (setting [8]), 3600 ± 400 µM; in assay [7] it was 3480 ± 1030 µM.

As for `NC(=O)c1ccc[n+]([C@@H]2O[C@H](COP(=O)(O)OP(=O)(O)OC[C@H]3O[C@@H](n4cnc5c(N)ncnc54)[C@H](O)[C@@H]3O)[C@@H](O)[C@H]2O)c1` [NAD^+], the Km in assay [3] amounted to 270 ± 30 µM; in assay [4] it was 6350 ± 380 µM; in assay [5], 270 ± 30 µM; in assay [6], 1500 ± 200 µM; in assay [1] (setting [8]), 100 ± 20 µM; in assay [2] (4 mM dihydrolipoamide), 440 ± 60 µM. Besides, the Km in assay [7] turned out to be 9490 ± 1820 µM.

What is called Km is the concentration of substrate that gives half-maximal velocity.
